Data on nine compounds can be found in PMC12466706 (Antioxidants, 2025).

Data set [1] deals with DENV. Put plainly: microbe, parasite or virus in culture. In kind it is cell-based, Dengue virus (DENV-2 16681 strain).
In data set [2] the test system is DENV. Put plainly: microbe, parasite or virus in culture. The class given is cell-based, Dengue virus (DENV-2 16681 strain). The conditions noted are these: for EC50: read-out: Replication EC50.
Test in data set [3]: not given
The source holds these as a separate data set.

Data set [4] deals with pBR322 supercoiled plasmid DNA. The class given is biochemical, Escherichia coli.
For data set [5], the system named is YFV. Put plainly: microbe, parasite or virus in culture. In kind it is cell-based, Yellow fever virus (YFV-17D). The conditions noted are these: read-out: EC50 against YFV replication.
The test system of data set [6] is DENV. Put plainly: microbe, parasite or virus in culture. In kind it is cell-based, Dengue virus (DENV-2 16681 strain). This is another data set of the same source.
The subject of data set [7] is Huh7 cells. The conditions noted are these: human.
A short description of data set [8]: in vitro. The conditions noted are these: human.
Where [9] appears, read: Dengue virus, Huh-7, 72 h, read-out: Infectivity EC50.
Where [10] appears, read: Dengue virus, Huh-7, read-out: Infectivity EC50.
The mark [11] stands for this setting: Dengue virus, 72 h, read-out: Entry + Replicaion EC50.
Where [12] appears, read: Dengue virus, Huh-7, 72 h, read-out: Entry + Replication EC50.

Like-named read-outs stand apart in the source and are kept apart here. Some results are limits rather than exact numbers.

By EC50 is commonly meant the concentration giving half of the maximal effect. For `O=C(O)/C=C/c1ccc(O)c(O)c1` [Caffeic acid, caffeic acid], the “DPPH scavenging activity IC50” value was 6.37 µg/mL. The 50% effective concentration (EC50) in data set [1] (setting [9]) worked out at 51.5 ± 1.19 µM. The EC50 in [1] (setting [10]) was determined as 4.63 µg/mL. For the same compound, the half-maximal effective concentration (EC50) in data set [2] (Dengue virus, Huh-7, 72 h) turned out to be 35.9 ± 1.88 µM. The “ABTS radical scavenging activity IC50” value in data set [3] was found to be 1.28 µg/mL. Further, in [4], the “inhibition of DNA strand breakage” value was found to be 98.98%. The EC50 in data set [5] (Yellow fever virus, 72 h) is > 100 µM. In addition, the concentration giving a half-maximal response (EC50) in [6] (setting [11]) is > 4.5 µg/mL. Moreover, the EC50 in [6] (setting [12]) was > 100 µM.

Turning to `O=C(O)/C=C/c1ccc(O)cc1` [Coumaric acid, coumaric acid], the “DPPH scavenging activity IC50” value is 21.17 µg/mL. Further, in data set [1] (setting [9]), the EC50 came to 91.64 ± 0.4 µM. Further, in data set [1] (setting [10]), the EC50 stood at 15 µg/mL. Moreover, the EC50 in [2] (Dengue virus, Huh-7, 72 h) was > 100 µM. The EC50 in data set [2] (Dengue virus) was > 16.4 µg/mL. For the same compound, the “ABTS radical scavenging activity IC50” value in data set [3] stood at 4.00 µg/mL. Besides, the “inhibition of DNA strand breakage” value in [4] is listed as 89.85%. Besides, the EC50 in data set [5] (Yellow fever virus, 72 h) is 154 ± 29.8 µM. In addition, the concentration for a half-maximal effect (EC50) in data set [6] (setting [11]) worked out at 7.87 µg/mL. Further, in [6] (setting [12]), the EC50 came to 48 ± 2.43 µM.

Regarding `COc1cc(/C=C/C(=O)O)ccc1O` [Ferulic acid, ferulic acid], the “DPPH scavenging activity IC50” value was 10.14 µg/mL. Moreover, in [1], the “Infectivity EC50” value was > 19.41 µg/mL. Besides, the EC50 in data set [1] (read-out: Infectivity EC50) is > 100 µM. In data set [2], the “Replication EC50” value was > 19.41 µg/mL and the EC50 is > 100 µM. In data set [3], the “ABTS radical scavenging activity IC50” value is 2.51 µg/mL. Moreover, the “inhibition of DNA strand breakage” value in [4] is listed as 94.17%. The half-maximal effective concentration (EC50) in [5] was > 100 µM. The “Entry + Replicaion EC50” value in data set [6] is > 19.41 µg/mL. In addition, in data set [6] (read-out: Entry + Replication EC50), the EC50 was > 100 µM.

As to `O=c1c(O)c(-c2ccc(O)cc2)oc2cc(O)cc(O)c12` [Kaempferol, kaempferol], the “DPPH scavenging activity IC50” value was found to be 7.40 µg/mL. Moreover, the 50% effective concentration (EC50) in [1] (setting [9]) was 3.55 ± 0.07 µM. Besides, the concentration giving a half-maximal response (EC50) in data set [1] (setting [10]) stood at 0.25 µg/mL. Besides, the CC50 in data set [7] was > 6.466 µg/mL. Besides, the EC50 in [2] (Dengue virus, Huh-7, 72 h) worked out at 31.5 ± 6.39 µM. The “ABTS radical scavenging activity IC50” value in [3] amounted to 1.84 µg/mL. This compound also came in with a CC50 in data set [8] of 90.4 µM. Moreover, in [4], the “inhibition of DNA strand breakage” value is recorded as 97.34%. Also, the EC50 in data set [5] (Yellow fever virus, 72 h) is > 50 µM. Moreover, in data set [6] (setting [11]), the half-maximal effective concentration (EC50) came out at 2.53 µg/mL. The EC50 in [6] (setting [12]) turned out to be 35.5 ± 4.09 µM.

As for `O=c1cc(-c2ccc(O)c(O)c2)oc2cc(O)cc(O)c12` [Luteolin, luteolin], the “DPPH scavenging activity IC50” value was determined as 9.48 µg/mL. Besides, in data set [1] (setting [9]), the EC50 is > 100 µM. Besides, the EC50 in data set [1] (setting [10]) is > 28.6 µg/mL. Besides, the half-maximal effective concentration (EC50) in data set [2] (Dengue virus, Huh-7, 72 h) was 107 ± 1.82 µM. Moreover, the 50% effective concentration (EC50) in [2] (Dengue virus) was 30.7 µg/mL. In addition, in data set [3], the “ABTS radical scavenging activity IC50” value amounted to 2.20 µg/mL. In data set [4], the “inhibition of DNA strand breakage” value was 95.87%. In addition, in data set [5] (Yellow fever virus, 72 h), the EC50 was > 100 µM. Further, the EC50 in data set [6] (setting [11]) worked out at 20.8 µg/mL. Further, the concentration for a half-maximal effect (EC50) in data set [6] (setting [12]) amounted to 72.7 ± 7.76 µM.

Consider `O=C1C[C@@H](c2ccc(O)cc2)Oc2cc(O)cc(O)c21` [Naringenin, naringenin], for which the “DPPH scavenging activity IC50” value stood at 17.45 µg/mL. In addition, the concentration giving a half-maximal response (EC50) in data set [1] (setting [9]) was > 100 µM. The EC50 in [1] (setting [10]) was > 27.2 µg/mL. Also, in data set [2] (Dengue virus, Huh-7, 72 h), the half-maximal effective concentration (EC50) was > 100 µM. Besides, the EC50 in [2] (Dengue virus) is > 27.2 µg/mL. Moreover, the “ABTS radical scavenging activity IC50” value in data set [3] amounted to 3.37 µg/mL. In data set [4], the “inhibition of DNA strand breakage” value was 92.03%. Further, the EC50 in [5] (Yellow fever virus, 72 h) turned out to be 102 ± 34.4 µM. In addition, the concentration giving a half-maximal response (EC50) in [6] (setting [11]) came to 28.5 µg/mL. Moreover, the EC50 in [6] (setting [12]) is > 100 µM.

On to `O=c1c(O)c(-c2ccc(O)c(O)c2)oc2cc(O)cc(O)c12` [Quercetin, quercetin], for which the “DPPH scavenging activity IC50” value was determined as 8.05 µg/mL. The concentration giving a half-maximal response (EC50) in data set [1] (setting [9]) was found to be 104 ± 1.49 µM. Besides, the EC50 in [1] (setting [10]) was 31.4 µg/mL. Moreover, in data set [2] (Dengue virus, Huh-7, 72 h), the concentration for a half-maximal effect (EC50) stood at 58.5 ± 7.08 µM. In addition, the EC50 in data set [2] (Dengue virus) amounted to 17.7 µg/mL. Besides, the “ABTS radical scavenging activity IC50” value in data set [3] is 1.93 µg/mL. Further, in data set [4], the “inhibition of DNA strand breakage” value was determined as 96.52%. The concentration giving a half-maximal response (EC50) in [5] (Yellow fever virus, 72 h) is > 100 µM. For the same compound, the EC50 in data set [6] (setting [11]) was found to be 32.1 µg/mL. Further, the concentration giving a half-maximal response (EC50) in data set [6] (setting [12]) was 109 ± 17.6 µM.

`O=C(/C=C/c1ccc(O)c(O)c1)O[C@H](Cc1ccc(O)c(O)c1)C(=O)O` [Rosmarinic acid, rosmarinic acid]: the “DPPH scavenging activity IC50” value is 12.28 µg/mL. In addition, the EC50 in [1] (setting [9]) came out at 37.1 ± 0.94 µM. For the same compound, the EC50 in data set [1] (setting [10]) was 13.4 µg/mL. The concentration for a half-maximal effect (EC50) in data set [2] (Dengue virus, Huh-7, 72 h) was 76.2 ± 7.92 µM. The concentration for a half-maximal effect (EC50) in data set [2] (Dengue virus) worked out at 27.4 µg/mL. Besides, the “ABTS radical scavenging activity IC50” value in data set [3] was determined as 3.05 µg/mL. Further, the CC50 in data set [8] is > 500 µM. In addition, the “inhibition of DNA strand breakage” value in [4] is listed as 93.12%. Moreover, the EC50 in data set [5] (Yellow fever virus, 72 h) is 98 ± 21 µM. In data set [6] (setting [11]), the EC50 is 25.6 µg/mL. The EC50 in data set [6] (setting [12]) turned out to be 70.9 ± 9.1 µM.

As for `C[C@@H]1O[C@@H](OC[C@H]2O[C@@H](Oc3c(-c4ccc(O)c(O)c4)oc4cc(O)cc(O)c4c3=O)[C@H](O)[C@@H](O)[C@@H]2O)[C@H](O)[C@H](O)[C@H]1O` [Rutin, rutin], the “DPPH scavenging activity IC50” value amounted to 21.86 µg/mL. In data set [1] (setting [9]), the concentration giving a half-maximal response (EC50) was > 100 µM. The EC50 in data set [1] (setting [10]) was > 61 µg/mL. Also, in data set [2] (Dengue virus, Huh-7, 72 h), the EC50 was > 100 µM. The 50% effective concentration (EC50) in data set [2] (Dengue virus) is > 61 µg/mL. Moreover, the “ABTS radical scavenging activity IC50” value in data set [3] was determined as 4.54 µg/mL. Further, the CC50 in data set [8] is > 500 µM. The “inhibition of DNA strand breakage” value in data set [4] is 88.60%. Besides, in [5] (Yellow fever virus, 72 h), the EC50 is > 100 µM. Also, the concentration for a half-maximal effect (EC50) in data set [6] (setting [11]) is > 61 µg/mL. Further, the 50% effective concentration (EC50) in data set [6] (setting [12]) is > 100 µM.
